Structures can show the parent of a compound that is named as a salt.
Key:
[1] = test system: stomach lesions in the rat; experiment: Annamalai-Ma gastrointestinal irritation rat model; format: in vivo; settings: rats, oral 180 mg-equivalents MMF/kg once per day for 4 days; score 0 (normal mucosa) to 5 (severe ulceration), Table 4
Text: At least one MMF prodrug, e.g., dimethyl fumarate, is known to cause gastrointestinal irritation. The Annamalai-Ma gastrointestinal irritation rat model is predictive of gastrointestinal irritation of MMF prodrugs in humans. This animal model has several common features of other published GI irritation animal models including the Whiteley-Dalrymple model described in Models of Inflammation: Measuring Gastrointestinal Ulceration in the Rat, Pharmacology (1998) 10.2.1-10.2.4; as well as the animal models disclosed in Joseph J. Bertone, DVM, MS, DipACVIM. Prevalence of Gastric Ulcers in Elite, Heavy Use Western Performance Horses, AAEP Proceedings/Vol. 46/2000; and İsbíl Büyükcoskun N., Central Effects of Glucagon-like Peptide-1 on Cold Restraint Stress-induced Gastric Mucosal Lesions, Physiol. Res. 48: 451-455, 1999.
In order to assess gastrointestinal irritation using this model, rats are treated orally with either vehicle or the MMF prodrug of the present disclosure (n=10 per group) at 180 mg-equivalents MMF/kg of animal body weight, dosed once per day for 4 days, followed by necropsy and gastrointestinal evaluation at 24 hrs after the final dose. Evans Blue dye is injected IV (tail vein) to visually emphasize any lesions in the gastrointestinal tissue.
Accordingly, rats are dosed once per day for 4 consecutive days with 180 mg-equivalents MMF/kg body weight per day. The animals are fasted overnight prior to necropsy. On Day 5, to help visualize lesions, 1 mL of 1% Evan's blue in saline is injected into the tail vein 30 minutes prior to euthanasia. The animals are euthanized by inhalation of carbon dioxide. A partial necropsy, limited to the abdominal cavities, is then performed. The stomach and small intestine are removed. Residual material is washed away, using an irrigation syringe filled with saline. The stomach is cut along the larger curvature and washed gently with normal saline, and is examined for any lesions. The stomachs are scored in accordance with the scoring system outlined in Table 4.

[2] = test system: imiquimod (IMQ) mouse model of psoriasis; experiment: Imiquimod (IMQ) mouse model of psoriasis; format: in vivo; settings: oral dose of 90 mg-eq MMF/kg BID for 10 days in male Balb/C mice
Description: Imidquimod model of skin inflammation (Fits et al The Journal of Immunology, 2009, 182: 5836-5845). 10-12 week old BALB/c, I117c+/+ or I117c−/−, or I117re+/+ or I117re−/− mice were administered 50 mg Aldara cream (5% Imidquimod in Graceway, 3M) in the shaved back and right ear daily for 5 days. Clinical scoring and ear thickness measurements were performed daily. Scoring was based upon the manifestation of psoriatic symptoms, such as erythema, scaling and thickness: 0, No disease. 1, Very mild erythema with very mild thickening and scaling involving a small area. 2, Mild erythema with mild thickening and scaling involving a small area. 3, Moderate erythema with moderate thickening and scaling (irregular and patchy) involving a small area (<25%). 4, Severe erythema with marked thickening and scaling (irregular and patchy) involving a moderate area (25-50%). 5, Severe erythema with marked thickening and scaling (irregular and patchy) involving a large area (>50%). Ear and back tissue were harvested on day 5 for histological evaluation.
Efficacy of compounds of the disclosure and DMF is compared in the imiquimod (IMQ) mouse model of psoriasis. Balb/c mice (10 males/group) received daily topical IMQ (5% cream) on shaved back and right ear for 5 days as described above. Animals received oral dose of a representative compound of the disclosure or DMF (45 or 90 mg-eq MMF/kg twice daily) or vehicle from Day −5 to Day 5. Erythema score is the primary outcome measure.
The Erythema score values of the compounds tested at an oral dose of 90 mg-eq MMF/kg BID for 10 days in male Balb/C mice are set forth in Table 3, below.

[3] = cited from earlier work

| SMILES | Stomach Irritation Score [1] | Erythema Score (% Relative to IMQ) [2] | melting point | Aqueous solubility [3] |
| --- | --- | --- | --- | --- |
| COC(=O)/C=C/C(=O)OCCN1CCOCC1 [Compound 2, Methyl(2-morpholinoethyl)fumarate HCl salt] | 0 | 69 % Relative to IMQ | – | – |
| COC(=O)/C=C/C(=O)OCCCN1CCOCC1 (as salt: HCl) [Compound 4, Methyl(3-morpholinopropyl)fumarate HCl salt] | – | – | 185.2 °C | – |
| COC(=O)/C=C/C(=O)OCCCCCN1CCOCC1 [Compound 8, Methyl(5-morpholinopentyl)fumarate HCl salt] | 0 | 59.3 % Relative to IMQ | – | – |
| COC(=O)/C=C/C(=O)OCCCCCN1CCOCC1 (as salt: HCl) [Compound 8, Methyl(5-morpholinopentyl)fumarate HCl salt] | – | – | 150 °C | – |
| COC(=O)/C=C/C(=O)OCCCCCCN1CCOCC1 [Compound 10, Methyl(6-morpholinohexyl)fumarate HCl salt] | 0 | 66.7 % Relative to IMQ | – | – |
| COC(=O)/C=C/C(=O)OCCCCN1CCOCC1 [Compound 6, Methyl(4-morpholinobutyl)fumarate HCl salt] | 0.6 | 57.1 % Relative to IMQ | – | – |
| COC(=O)/C=C/C(=O)OCCCN1CCOCC1 [Compound 4, Methyl(3-morpholinopropyl)fumarate HCl salt] | 0 | 73.3 % Relative to IMQ | – | – |
| COC(=O)/C=C/C(=O)OCCCCCCN1CCOCC1 (as salt: HCl) [Compound 10, Methyl(6-morpholinohexyl)fumarate HCl salt] | – | – | 104.1 °C | – |
| COC(=O)/C=C/C(=O)OC [DMF, dimethyl fumarate, reference compound] | 4.6 | 74.1 % Relative to IMQ | – | poor |
| COC(=O)/C=C/C(=O)OCC(=O)N1CCOCC1 [CC-1, reference compound] | 2.9 | – | – | – |
| COC(=O)/C=C/C(=O)OCCCCN1CCOCC1 (as salt: HCl) [Compound 6, Methyl(4-morpholinobutyl)fumarate HCl salt] | – | – | 145.5 °C | – |
